Data on five compounds can be found in patent publication US20100197601A1, “USE OF A FIBRINOGEN RECEPTOR ANTAGONIST AND/OR FOLLICULAR GONADOTROPIN RELEASING PEPTIDE AS A THERAPEUTIC AGENT IN THE TREATMENT OF STREPTOCOCCUS PNEUMONIA INFECTION” (priority 2007, published 2010).

Primed or numbered codes have the meaning given here. Where no end group is shown, it is not given here. [ ]: non-standard residue; d: D form. Pen′ = not defined here

The subject of one assay is HUVEC. Briefly: Endothelial tube formation assay. The format is cell-based, human. The following applies: 10 micrograms per ml, 20 hours. Here is the method:
The endothelial tube formation assay is based on the ability of endothelial cells to form three-dimensional capillary-like tubular structures when cultured on a gel of basement membrane extract. The endothelial tube formation assay represents a powerful model for studying inhibition and induction of angiogenesis. Pre-labeled HUVEC with Calcein AM were seeded in a 96-well culture plate coated with extracellular metrix (Chemicon international Cat. ECM625) and treated with test peptides—10 micrograms per ml—in full growth medium. Positive control wes vehicle only. The endothelial cells were allowed to form tubes foe 20 hours and were then examined under an inverted fluorescent microscope. Duplicate wells for each treatment were photographed and quantitatively analyzed for an average tubule length using image analysis software ImageProPlus. Raw data were expressed as average tubule lengths in pixels±standard deviation. Statistic p values were computed using the Student's t-test.

The test system of another assay is HCMV strain AD169. Briefly: HCMV plaque formation assay in MRC-5 cells. Format: cell-based. The following applies: for inhibition of HCMV plaque formation as compared to the virus control experiment: 10 micrograms per ml, 7-10 days.
In the next assay the test system is Streptococcus pneumoniae. Briefly: Streptococcus pneumoniae assay. The format is cell-based. The following applies: 10 micrograms per ml; 5x10^5 CFU/mL; read visually; combination for instance 0.95 mole peptide 1 and 1.05 mole peptide 2.
For assay [1], the system named is Primary Human endothelial cells (HUVEC). Briefly: Endothelial cell migration assay. The format is cell-based. The following applies: 10 micrograms per ml, 22 hours, combination peptide 1:peptide 2 1.10 mole:0.90 mole.
The test system of assay [2] is hepatitis B virus (HBV) ayw strain. Briefly: HBV experimental assay system, HepG2-2.2.15. Format: cell-based. As to conditions: 10 micrograms per ml, six days, HBV DNA by TaqMan PCR, combination 0.95 mole peptide 1 and 1.05 mole peptide 2.
Assay [3] relates to murine spleen cells restimulated with Ovalbumin. Briefly: Th1/Th2 cytokine profiling assay. The format is cell-based, Balb/c mice. The following applies: 10 micrograms per ml.
A further assay concerns HIV-1IIIB. Briefly: HIV-1 antiviral assay in CEM-SS cells.
Where [4] appears, read: combination 0.95 mole peptide 1 and 1.05 mole peptide 2.

With “Ac-Pen-Arg-Gly-Asp-Cys-OH (Ac-[Pen′]RGDC-OH; reading uncertain; also: printed as Ac-Pen-Arg-Gly-Asp-Cys-OH) [Peptide 1]”, the “inhibition of the tube formation of human endothelial cells” value with HUVEC (combination peptide 1:peptide 2 1.10 mole:0.90 mole) is on record as 26%. Moreover, in the assay with HCMV strain AD169, the “inhibition of HCMV plaque formation as compared to the virus control experiment” value is given as “did not inhibit”. In addition, the “inhibition of the growth of Streptococcus pneumoniae” value with Streptococcus pneumoniae worked out at 100%. In assay [1], the “inhibition of the migration of human endothelial cells” value worked out at 4%. In assay [2], the “inhibition of HBV replication as compared to the virus control infection” value was “no effect”. In assay [3] (72 hours), the “production of IL-4, decreased by” value came to 44%; the “production of IL-5, decreased by” value came out at 26.5%; the “production of TNF-alpha, induced by” value was 30.0%. In assay [3] (setting [4]), the “change of the production of IFN-y” value was “did not significantly change” and the “change of the production of IL-2” value is “did not significantly change”.

With “Thr-Asp-Thr-Ser-His-His-Asp-Gln-Asp-His-Pro-Thr-Phe-Asn-OH (TDTSHHDQDHPTFN-OH) [Peptide 2]”, the “increase of the tube formation of endothelial cells” value in the assay with HUVEC was 11%. The “inhibition of HCMV plaque formation as compared to the virus control experiment” value with HCMV strain AD169 was “did not inhibit”. Also, the “inhibition of the growth of Streptococcus pneumoniae” value in the assay with Streptococcus pneumoniae is recorded as 100%. For the same compound, in assay [1], the “inhibition of the migration of human endothelial cells” value is on record as 8%. For the same compound, in assay [3] (72 hours), the “production of IFN-y, induced by” value turned out to be 23.4%; the “production of IL-4, induced by” value was 29%; the “production of TNF-alpha, induced by” value is recorded as 34%. In assay [3] (setting [4]), the “change of the production of IL-2” value is given as “did not significantly change” and the “change of the production of IL-5” value is recorded as “did not significantly change”.

As for `CC(C)(C)NC(=O)[C@@H]1CN(Cc2cccnc2)CCN1C[C@@H](O)C[C@@H](Cc1ccccc1)C(=O)N[C@H]1c2ccccc2C[C@H]1O` [indinavir], in the assay on HIV-1IIIB, the “antiviral activity of positive control compounds (HIV-1)” value is “expected levels of antiviral activity”.

As to `Nc1nc(O)c2ncn(COC(CO)CO)c2n1` [Ganciclovir, reference compound], the “antiviral activity of positive control compound (HCMV)” value with HCMV strain AD169 (positive control) was “expected levels of antiviral activity”.

For the compound `Cc1cn([C@H]2C[C@H](N=[N+]=[N-])[C@@H](CO)O2)c(=O)[nH]c1=O` [AZT], the “antiviral activity of positive control compounds (HIV-1)” value in the assay on HIV-1IIIB is “expected levels of antiviral activity”.
